In patent US20050064507A1, “Determining kinase specificity” (priority 2003, published 2005):

Test system: pPKC Ab
Experiment: pPKC Ab binding to peptides phosphorylated in vitro by PKC-theta
Details: for pPKC Ab Signal on peptide after exposure to PKC-theta phosphorylation: 30 minutes at 30° C. then overnight at 4° C.; for pPKC Ab Signal amount dependent on PKC phosphorylation: difference after minus without exposure
Protocol: Synthetic peptides chosen from those shown in Table 4 were subjected to phosphorylation by PKC-theta, Assay conditions were similar to those described herein, except that the phosphorylation reaction was for 30 minutes at 30° C. and then overnight at 4° C. The reaction mixture was applied to HB avidin-coated plates, the plates washed, and then pPKC Ab binding assayed.

Row | Substance | pPKC Ab Signal on peptide without exposure to PKC-theta | pPKC Ab Signal on peptide after exposure to PKC-theta phosphorylation | pPKC Ab Signal amount dependent on PKC phosphorylation
1 | 76 (HVRRRRGTFKRSKLRARD) [compound 76] | 0.07 | 1.02 | 0.95
2 | 121 (LRRRSLRRSNSISKSPGP) [compound 121] | 0.02 | 1.13 | 1.11
